Here are results for three compounds from patent US20260206756A1, “COMPOUNDS AND METHODS OF TREATING OR PREVENTING A BACTERIAL INFECTION IN A PLANT” (Ohio State Innovation Foundation, priority 2023, published 2026).

As usually defined, the MBC is the lowest tested concentration that kills the bacteria rather than only halting them. Low values mean greater bactericidal potency, high ones weaker bactericidal potency. A word on the MIC: it is the lowest concentration that inhibits growth of the organism. A high value points to a less susceptible organism.

The subject of test [1] is Pss SM1042-14R on pepper seedlings. It is filed as in vivo, Pseudomonas syringae pv. syringae. The settings on record: 200 μM, 7 dpi; streptomycin 200 μg/ml; CuSO4 200 μM.
The subject of test [2] is Pseudomonas syringae pv. syringae (Pss) SM914-13. As to the kind of experiment: Dose-response assay (MIC/MBC) in M9 minimal broth. As to conditions: Pseudomonas syringae, 48 h.
Description: (§1) Minimum inhibitory concentration (MIC) and minimum bactericidal concentration (MBC) of the 15 PCs against 10 Pss strains. A dose-response assay was conducted with the 15 PCs identified during the primary screening against 10 Pss strains including the model strain, SM1042-14R. The dose-response assay was conducted as described above with concentrations of PCs ranging from 3.125 to 500 μM. Pss treated with non-amended M9 minimal media, 2% DMSO, or 50 μg/ml kanamycin were used as controls. The plate was incubated in a Sunrise Tecan kinetic microplate reader for 48 h at 28° C. The percentage of inhibition and cell viability were determined as described above.
Test [3] relates to Pseudomonas syringae pv. syringae (Pss) SM1038-14. Put plainly: Dose-response assay (MIC/MBC) in M9 minimal broth. As to conditions: Pseudomonas syringae, 48 h.
Description: as §1
Test [4] has as its system Pseudomonas syringae pv. syringae (Pss) SM51-19. As to the kind of experiment: Dose-response assay (MIC/MBC) in M9 minimal broth. As to conditions: Pseudomonas syringae, 48 h.
Description: as §1
Test [5] relates to Pseudomonas syringae pv. syringae (Pss) SM156-18. As to the kind of experiment: Dose-response assay (MIC/MBC) in M9 minimal broth. The settings on record: Pseudomonas syringae, 48 h.
Description: as §1
Test [6] has as its system Pseudomonas syringae pv. syringae (Pss) SM1031-14. As to the kind of experiment: Dose-response assay (MIC/MBC) in M9 minimal broth. The settings on record: Pseudomonas syringae, 48 h.
Description: (§2) Primary screening of 4,182 SMs was conducted using a high throughput screening method to identify SMs that inhibited the growth of Pss SM1042-14R strain. A fresh bacterial culture of SM1042-14R was grown in M9 minimal broth in a shaking incubator (180 rpm) for 12 h at 28° C. The bacterial culture was normalized to a final optical density (OD600) of 0.05 (c.a., 8.0×10^7 CFU/ml) using a Genesys 20 spectrophotometer (Thermo Scientific, Rockford, IL, USA). In a sterile flat-bottom 96-well plate, 98 μl of the normalized bacterial suspension was challenged with 2 μl of SMs (final concentration of 200 μM). Controls were bacteria challenged with 2% DMSO (positive control; μc+), 50 μg/ml kanamycin (negative control; μc−), or M9 broth alone (blank control). The plate was incubated in a Sunrise Tecan kinetic microplate reader (Tecan Group Ltd., San Jose, CA, USA) for 48 h at 28° C. OD600 was measured every 30 min.
(§3) The plate was agitated for 15 s at 180 rpm before reading the OD600. Growth inhibition of SM1042-14R by the SMs was calculated using the following formula: % of inhibition=(μc+−X)/(μc+−μc−)×100, where μc+ and μc− is the average final OD600 of the positive and negative controls, respectively, and X is the final OD600 of each of the bacterial culture treated with a designated SM. After the 48 h of incubation with the SMs at 28° C., the viability of the bacterial culture was assessed by plating 5 μl of the culture on YDC (Yeast Dextrose Carbonate) agar medium, incubating the plate at 28° C. and monitoring any bacterial colonies on the plate after 48 h.
(§4) A dose-response assay was conducted with the 15 PCs identified during the primary screening against 10 Pss strains including the model strain, SM1042-14R. The dose-response assay was conducted as described above with concentrations of PCs ranging from 3.125 to 500 μM. Pss treated with non-amended M9 minimal media, 2% DMSO, or 50 μg/ml kanamycin were used as controls. The plate was incubated in a Sunrise Tecan kinetic microplate reader for 48 h at 28° C. The percentage of inhibition and cell viability were determined as described above.
For test [7], the system named is Pseudomonas syringae pv. syringae (Pss) SM109-18. As to the kind of experiment: Dose-response assay (MIC/MBC) in M9 minimal broth. As to conditions: Pseudomonas syringae, 48 h.
Description: as §2, §3, §4
For test [8], the system named is Pseudomonas syringae pv. syringae (Pss) SM155-18. As to the kind of experiment: Dose-response assay (MIC/MBC) in M9 minimal broth. As to conditions: Pseudomonas syringae, 48 h.
Description: as §2, §3, §4
Test [9] deals with Pseudomonas syringae pv. syringae (Pss) SM1030-14. Put plainly: Dose-response assay (MIC/MBC) in M9 minimal broth. As to conditions: Pseudomonas syringae, 48 h.
Description: as §2, §3, §4
For test [10], the system named is Pseudomonas syringae pv. syringae (Pss) SM04-2018-04. Put plainly: Dose-response assay (MIC/MBC) in M9 minimal broth. The settings on record: Pseudomonas syringae, 48 h.
Description: as §1

For the compound `CCCCCCCCCCCCCCCCn1c[n+](C)c2ccccc21` [PC1], in test [1], the “Pseudomonas leaf spot incidence, Curative application” value is 86%. Also, the “Pseudomonas leaf spot incidence, Preventative application” value in test [1] amounted to 100%. Moreover, the MBC in test [2] was 12.5 µM; in [3], 25 µM; in test [4], 12.5 µM; in test [5], 12.5 µM; in test [6], 12.5 µM; in test [7], 12.5 µM. Also, the MBC in test [8] worked out at 12.5 µM; in [9], 25 µM; in test [10], 12.5 µM. For the same compound, the minimal inhibitory concentration (MIC) in test [2] amounted to 6.25 µM; in test [3], 12.5 µM; in test [4], 6.25 µM; in [5], 6.25 µM; in [6], 6.25 µM; in [7] it was 6.25 µM. For the same compound, the MIC in test [8], in [9] and in test [10] was 6.25 µM throughout.
On to `CCN1/C(=C/c2ccc3ccccc3[n+]2CC)C=Cc2ccccc21` [PC2], for which, in test [1], the “Pseudomonas leaf spot incidence, Curative application” value is given as 86%. For the same compound, the “Pseudomonas leaf spot incidence, Preventative application” value in test [1] was 100%. The MBC in test [2] came to 25 µM; in [3], 25 µM; in test [4], 50 µM; in [5], 25 µM; in [6], 25 µM; in [7], 12.5 µM. Besides, the MBC is 25 µM in test [8], 50 µM in [9] and 25 µM in test [10]. In addition, the MIC in [2] was determined as 6.25 µM; in test [3] it was 12.5 µM; in [4] it was 6.25 µM; in test [5] it was 6.25 µM; in test [6] it was 6.25 µM; in [7], 12.5 µM. For the same compound, the MIC is 12.5 µM in test [8], 6.25 µM in test [9] and 6.25 µM in test [10].
Turning to `CC1CCC(C(C)C)C(OC(=O)Cn2c[n+](CC(=O)OC3CC(C)CCC3C(C)C)c3ccccc32)C1` (stereo not drawn) [PC4], the “Pseudomonas leaf spot incidence, Curative application” value in [1] amounted to 100%. Moreover, the “Pseudomonas leaf spot incidence, Preventative application” value in test [1] came out at 100%. In addition, the MBC in test [2], in [3], in test [4], in [5], in test [6] and in test [7] was 12.5 µM in each case. Moreover, the MBC in [8] came to 25 µM; in test [9], 12.5 µM; in test [10] it was 25 µM. The MIC in test [2], in test [3], in test [4], in test [5], in test [6] and in test [7] was 12.5 µM each time. In addition, the MIC in test [8], in test [9] and in [10] was 12.5 µM in each case.
